From article PMC9403976, “Elucidating the path to Plasmodium prolyl-tRNA synthetase inhibitors that overcome halofuginone resistance” (Nature Communications, 2022)
Several values for one entry are separate records, joined by “and”; a condition that tells them apart may be missing. Equal entries are not always repeated. Where two headings read alike, the source gives them in different places.

Tests used:
PfcProRS = molecular target: T1, PfcProRS (Plasmodium falciparum, UniProt Q8I5R7); type: binding; conditions: for dose-response signal (normalized), SI Fig 8: single replicates
T1 construct: made in house; host or cells: E. coli SoluBL-21

P. falciparum Dd2-2D4 = assay: P. falciparum asexual blood stage (ABS) growth assay, SYBR Green, 72 h, wild-type parasites; type: cell-based, Plasmodium falciparum; conditions: Plasmodium falciparum, DD2; SI Fig 16b; values on -log scale; read-out: ABS - Dd2-2D4 (converted)
HsProRS = HsProRS (Homo sapiens, UniProt P07814); assay: TR-FRET ligand displacement assay with tracer MAT379 (CoraFluor-1-Halo and anti-His6 antibody formats); type: binding; set-up: made in house; host or cells: E. coli SoluBL-21; conditions: for TR-FRET dose-response, normalized signal (SI Fig 11): individual replicates
Chain of HsProRS (P07814 996-1512): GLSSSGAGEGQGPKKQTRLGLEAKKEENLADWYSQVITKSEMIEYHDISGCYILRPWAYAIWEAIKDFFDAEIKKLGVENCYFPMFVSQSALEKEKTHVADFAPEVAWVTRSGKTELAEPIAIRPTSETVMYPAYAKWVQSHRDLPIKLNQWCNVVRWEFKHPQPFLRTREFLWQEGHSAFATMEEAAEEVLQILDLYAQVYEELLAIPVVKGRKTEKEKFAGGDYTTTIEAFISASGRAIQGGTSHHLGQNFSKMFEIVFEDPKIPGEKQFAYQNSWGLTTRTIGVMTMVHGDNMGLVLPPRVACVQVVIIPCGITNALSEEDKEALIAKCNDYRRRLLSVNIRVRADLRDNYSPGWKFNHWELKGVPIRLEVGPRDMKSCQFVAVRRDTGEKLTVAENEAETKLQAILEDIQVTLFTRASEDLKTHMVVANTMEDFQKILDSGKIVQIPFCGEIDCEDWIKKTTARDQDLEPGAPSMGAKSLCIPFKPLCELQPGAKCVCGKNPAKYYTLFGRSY

T1 sequence (Q8I5R7 249-746): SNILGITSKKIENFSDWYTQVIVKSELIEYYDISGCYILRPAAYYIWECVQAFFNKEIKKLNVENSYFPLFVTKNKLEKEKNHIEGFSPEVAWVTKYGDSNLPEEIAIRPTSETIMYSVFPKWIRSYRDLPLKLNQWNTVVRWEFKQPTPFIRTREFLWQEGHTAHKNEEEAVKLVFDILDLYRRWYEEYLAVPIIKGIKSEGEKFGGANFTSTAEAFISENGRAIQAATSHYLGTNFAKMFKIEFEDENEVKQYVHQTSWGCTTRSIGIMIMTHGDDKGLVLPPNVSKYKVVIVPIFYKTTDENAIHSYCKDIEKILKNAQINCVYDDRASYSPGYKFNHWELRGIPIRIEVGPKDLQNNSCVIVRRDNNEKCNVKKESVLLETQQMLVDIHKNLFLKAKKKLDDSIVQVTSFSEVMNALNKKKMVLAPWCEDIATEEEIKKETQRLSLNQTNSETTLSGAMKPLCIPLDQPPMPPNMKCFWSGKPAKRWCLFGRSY

Compound: O=C(NC1Cc2ccccc2C1)c1nccnc1NC(=O)N1CCC(CCO)CC1 [compound 12]
- dose-response signal (normalized), SI Fig 8 (PfcProRS; Log[inhibitor] (M) -5.000): 1.96E-01 and 6.39E-02 and 9.88E-02
- dose-response signal (normalized), SI Fig 8 (PfcProRS; Log[inhibitor] (M) -5.301): 1.70E-01 and 1.45E-01 and 2.26E-01
- dose-response signal (normalized), SI Fig 8 (PfcProRS; Log[inhibitor] (M) -5.601): 3.61E-01 and 2.68E-01 and 3.67E-01
- dose-response signal (normalized), SI Fig 8 (PfcProRS; Log[inhibitor] (M) -5.904): 5.30E-01 and 5.32E-01 and 5.86E-01
- dose-response signal (normalized), SI Fig 8 (PfcProRS; Log[inhibitor] (M) -6.208): 7.40E-01 and 8.32E-01 and 8.18E-01
- dose-response signal (normalized), SI Fig 8 (PfcProRS; Log[inhibitor] (M) -6.509): 9.11E-01 and 8.45E-01 and 9.67E-01
- dose-response signal (normalized), SI Fig 8 (PfcProRS; Log[inhibitor] (M) -6.796): 1.07E+00 and 9.35E-01 and 8.42E-01
- dose-response signal (normalized), SI Fig 8 (PfcProRS; Log[inhibitor] (M) -7.108): 1.04E+00 and 9.91E-01 and 9.07E-01
- dose-response signal (normalized), SI Fig 8 (PfcProRS; Log[inhibitor] (M) -7.409): 1.05E+00 and 1.07E+00 and 9.30E-01
- dose-response signal (normalized), SI Fig 8 (PfcProRS; Log[inhibitor] (M) -7.710): 9.50E-01 and 9.05E-01 and 1.01E+00
- dose-response signal (normalized), SI Fig 8 (PfcProRS; Log[inhibitor] (M) -8.000): 1.00E+00 and 9.33E-01 and 9.19E-01
- dose-response signal (normalized), SI Fig 8 (PfcProRS; Log[inhibitor] (M) -8.301): 1.00E+00 and 9.74E-01 and 1.08E+00
- dose-response signal (normalized), SI Fig 8 (PfcProRS; Log[inhibitor] (M) -8.602): 9.86E-01 and 9.74E-01 and 9.65E-01
- dose-response signal (normalized), SI Fig 8 (PfcProRS; Log[inhibitor] (M) -9.000): 9.41E-01 and 9.53E-01 and 9.73E-01
- dose-response signal (normalized), SI Fig 8 (PfcProRS; Log[inhibitor] (M) -9.301): 9.78E-01 and 8.31E-01 and 1.01E+00
- PfcProRS -- best Kd (PfcProRS; SI Fig 16a, values on -log scale): 6.470
- EC50 (P. falciparum Dd2-2D4): 153 nM
- Kd (HsProRS; HsProRS (KD [nM]) mean, no added proline/ATP (-)): 687 nM
- Kd (HsProRS; HsProRS - best Kd, SI Fig 16a, values on -log scale): 150 nM
- normalized TR-FRET ligand displacement signal, dose-response replicates (SI Fig 6) (HsProRS; Log[inhibitor] (M) -5.000): 1.59E-01 and 1.60E-01 and 2.09E-01
- TR-FRET dose-response, normalized signal (SI Fig 11) (HsProRS; Log[inhibitor] (M) -5.000): 3.68E-02 (2×) and 3.81E-02
- normalized TR-FRET ligand displacement signal, dose-response replicates (SI Fig 6) (HsProRS; Log[inhibitor] (M) -5.301): 3.23E-01 and 2.51E-01 and 1.66E-01
- TR-FRET dose-response, normalized signal (SI Fig 11) (HsProRS; Log[inhibitor] (M) -5.301): 1.17E-01 and 1.16E-01 and 1.37E-01
- normalized TR-FRET ligand displacement signal, dose-response replicates (SI Fig 6) (HsProRS; Log[inhibitor] (M) -5.601): 4.15E-01 (2×) and 3.76E-01
- TR-FRET dose-response, normalized signal (SI Fig 11) (HsProRS; Log[inhibitor] (M) -5.601): 3.29E-01 and 2.78E-01 and 2.37E-01
- normalized TR-FRET ligand displacement signal, dose-response replicates (SI Fig 6) (HsProRS; Log[inhibitor] (M) -5.904): 6.44E-01 and 5.20E-01 and 5.13E-01
- TR-FRET dose-response, normalized signal (SI Fig 11) (HsProRS; Log[inhibitor] (M) -5.904): 4.76E-01 and 4.29E-01 and 4.93E-01
- normalized TR-FRET ligand displacement signal, dose-response replicates (SI Fig 6) (HsProRS; Log[inhibitor] (M) -6.208): 7.49E-01 and 7.87E-01 and 7.20E-01
- TR-FRET dose-response, normalized signal (SI Fig 11) (HsProRS; Log[inhibitor] (M) -6.208): 5.93E-01 and 6.01E-01 and 5.70E-01
- normalized TR-FRET ligand displacement signal, dose-response replicates (SI Fig 6) (HsProRS; Log[inhibitor] (M) -6.509): 9.12E-01 and 8.62E-01 and 8.67E-01
- TR-FRET dose-response, normalized signal (SI Fig 11) (HsProRS; Log[inhibitor] (M) -6.509): 7.07E-01 and 6.82E-01 and 7.18E-01
- normalized TR-FRET ligand displacement signal, dose-response replicates (SI Fig 6) (HsProRS; Log[inhibitor] (M) -6.796): 1.06E+00 and 1.12E+00 and 9.20E-01
- TR-FRET dose-response, normalized signal (SI Fig 11) (HsProRS; Log[inhibitor] (M) -6.796): 7.97E-01 and 7.75E-01 and 7.79E-01
- normalized TR-FRET ligand displacement signal, dose-response replicates (SI Fig 6) (HsProRS; Log[inhibitor] (M) -7.108): 1.07E+00 and 1.02E+00 and 1.12E+00
- TR-FRET dose-response, normalized signal (SI Fig 11) (HsProRS; Log[inhibitor] (M) -7.108): 8.56E-01 and 8.75E-01 and 8.83E-01
- normalized TR-FRET ligand displacement signal, dose-response replicates (SI Fig 6) (HsProRS; Log[inhibitor] (M) -7.409): 1.02E+00 and 1.06E+00 (2×)
- TR-FRET dose-response, normalized signal (SI Fig 11) (HsProRS; Log[inhibitor] (M) -7.409): 8.85E-01 and 8.47E-01 and 8.63E-01
- normalized TR-FRET ligand displacement signal, dose-response replicates (SI Fig 6) (HsProRS; Log[inhibitor] (M) -7.710): 9.85E-01 and 1.01E+00 and 9.72E-01
- TR-FRET dose-response, normalized signal (SI Fig 11) (HsProRS; Log[inhibitor] (M) -7.710): 8.80E-01 and 8.88E-01 and 8.59E-01
- normalized TR-FRET ligand displacement signal, dose-response replicates (SI Fig 6) (HsProRS; Log[inhibitor] (M) -8.000): 9.44E-01 and 9.64E-01 and 9.22E-01
- TR-FRET dose-response, normalized signal (SI Fig 11) (HsProRS; Log[inhibitor] (M) -8.000): 9.20E-01 and 9.38E-01 and 9.24E-01
- normalized TR-FRET ligand displacement signal, dose-response replicates (SI Fig 6) (HsProRS; Log[inhibitor] (M) -8.301): 9.32E-01 and 1.05E+00 and 8.26E-01
- TR-FRET dose-response, normalized signal (SI Fig 11) (HsProRS; Log[inhibitor] (M) -8.301): 8.82E-01 and 8.99E-01 and 9.20E-01
- normalized TR-FRET ligand displacement signal, dose-response replicates (SI Fig 6) (HsProRS; Log[inhibitor] (M) -8.602): 1.02E+00 and 1.07E+00 and 9.72E-01
- TR-FRET dose-response, normalized signal (SI Fig 11) (HsProRS; Log[inhibitor] (M) -8.602): 9.41E-01 and 8.91E-01 and 9.25E-01
- normalized TR-FRET ligand displacement signal, dose-response replicates (SI Fig 6) (HsProRS; Log[inhibitor] (M) -9.000): 9.71E-01 and 8.87E-01 and 1.00E+00
- TR-FRET dose-response, normalized signal (SI Fig 11) (HsProRS; Log[inhibitor] (M) -9.000): 9.29E-01 and 9.20E-01 and 9.52E-01
- normalized TR-FRET ligand displacement signal, dose-response replicates (SI Fig 6) (HsProRS; Log[inhibitor] (M) -9.301): 1.06E+00 and 9.50E-01 and 9.98E-01
- TR-FRET dose-response, normalized signal (SI Fig 11) (HsProRS; Log[inhibitor] (M) -9.301): 9.00E-01 and 9.10E-01 and 9.03E-01
